Reference: patent publication US10066212B2, “Method for preparing induced pluripotent stem cells using synthetic peptide” (Seoul National University R&DB Foundation, priority 2015, dated 2018)

How the values were obtained:
Format in all cases: cell-based
[1] = tested on: human dermal fibroblasts introduced with reprogramming genes; test: Oct4 embryonic stem cell marker expression by immunofluorescence (IF); details: 10 μM peptide for 10 days; compared with cells without peptide and control peptides C1 or C2; FIG. 2
Experimental: Using the same method as in Example 2-1, reprogramming genes were introduced into the cells by an electroporation method in human dermal fibroblasts and divided in a 6-well coated with vitronectin. Thereafter, expression levels of Oct4 as a marker of embryonic stem cells were compared with each other by using an immunofluorescence (IF) method. The cells treated with 10 μM of each peptide for 10 days were fixed with 4% paraformaldehyde for 10 minutes at room temperature, and then 0.5% Triton-X 100 was added and they were cultured for 15 minutes at room temperature to pass through a cell wall and to penetrate into nuclei in the cells, and blocked with a buffer PBS in which 3% bovine serum albumin (BSA) was dissolved for 30 minutes. An Oct4 primary antibody was diluted with a buffer PBS in which 1% BSA was dissolved at a ratio of 1:100 and reacted for 16 hrs at 4° C. and a secondary antibody bound with fluorescein isothiocyanate (FITC) was diluted at a ratio of 1:200 and reacted for 1 hr at room temperature. Finally, a dye (Hoechst 33342, blue) for staining nuclei was treated for 10 minutes at room temperature and washed with a buffer PBS, and colonies with the clearest fluorescent expression in the well were photographed with a confocal scanning microscope (IX 70, Olympus Co., Tokyo, Japan).

[2] = tested on: human dermal fibroblasts (hDF) introduced with reprogramming genes; test: Colony number of induced pluripotent stem cells by alkaline phosphatase (AP) staining; details: for dedifferentiation induction, graph counting and quantifying the number of colonies / AP-stained colonies: 10 μM peptide, 10 days at 24-hr intervals, FIG. 1; for AP-stained colonies: compared with cells without peptide and control peptides C1 or C2; for AP staining clarity: group treated with peptide, reported with FIG. 2
Source text: In order to verify the dedifferentiation induction efficiency of each peptide, the DNAs of reprogramming genes Oct3/4, Sox2, c-Myc, Klf4, and Lin28 were introduced to human dermal fibroblasts (hDF) of 1.5×10^5/well on a 6-well coated with […] of vitronectin recombinant human protein (VTN-N) by an electroporation method. According to a known method, the reprogramming genes were divided into three groups and cloned into three different episomal vectors and expressed together with p53 shRNA(pCXLE-hOCT3/4-shp53, pCXLE-hSK, and pCXLE-hUL) to enhance the establishment efficiency of dedifferentiation of stem cells (Okita, K. et al., Nat. Methods. 8(5):409-12, 2011). The cells introduced with the reprogramming genes were cultured in an Eagle's minimal essential medium (EMEM, ATCC) and the medium was replaced at 24-hr intervals until cell confluency became 50%. When the confluency became 50%, 10 μM of a dedifferentiation induction-promoting peptide and a control peptide were treated, respectively, and the medium was replaced with Essential 8 Medium and the peptides were treated at the same time as the medium replacement every 24 hrs. The peptide was treated for 10 days at 24-hr intervals, and in order to verify dedifferentiation efficiency per peptide, alkaline phosphatase (AP), known as a marker of embryonic stem cells, was used. For AP staining, an alkaline phosphatase detection kit(Milipore) was used. The medium was removed, 4% paraformaldehyde was added to the cells and they were immobilized for 2 minutes, a Naphthol/Fast Red Violet staining agent was added in a well and reacted at room temperature in a dark space for 20 minutes or more, and then the staining agent was washed with Dulbecco's phosphate buffered saline (DPBS) and the number of stained colonies was verified with a microscope.

[3] = tested on: human dermal fibroblasts introduced with reprogramming genes; test: Mesenchymal-epithelial transition (MET) by THY1/EPCAM flow cytometry (FACS); details: 10 days of peptide treatment; compared with control peptides C1 or C2; FIG. 3
Experimental: Using the same method as in Example 2-1, reprogramming genes were introduced into the cells by an electroporation method in human dermal fibroblasts and divided in a 6-well coated with Vitronectin. After 10 days of peptide treatment in which the cells were stabilized, the cells were collected in a 15 ml Falcon tube by using a scrapper and then centrifuged for 3 minutes at 1500 rpm. The cells were washed with a buffer (PBS) and then 1.5×10^5 cells were transferred to each tube by using cold PBS. THY1 (cat: sc-59398) and EPCAM (cat: ab20160) antibodies at a concentration of 10 μg/ml were diluted with a 3% BSA/PBS solution in the tube and reacted for 30 minutes at 4° C., and then centrifuged three times for 5 minutes at 1500 rpm. After washing with cold PBS, the cells were transferred to a round tube and analyzed by flow cytometry (FACS). Before measuring samples, a control reference value was fixed using THY1 for human dermal fibroblasts and EPCAM for a human mammary epithelial cell (HMEC).

**Q.** “GKCSTRGRKCCRRKK (Functional Peptide P1) [dedifferentiation induction-promoting functional peptide]” was tested. Which “Oct4 fluorescence expression (IF)” value [1] did it give?
**A.** Its value is “more fluorescence was expressed”.

**Q.** What about the “dedifferentiation induction, graph counting and quantifying the number of colonies” value [2] of the same sequence?
**A.** Its value is “more efficiently induced dedifferentiation”.

**Q.** What about the AP-stained colonies [2] of the same sequence?
**A.** Its AP-stained colonies is “more colonies were stained”.

**Q.** And the AP staining clarity [2]?
**A.** Its AP staining clarity is “clearer”.

**Q.** And the “change of mesenchymal shape of dermal fibroblasts to epithelial shape (THY1/EPCAM, FACS)” value [3]?
**A.** The value was “significantly changed to an epithelial shape”.

**Q.** Which “Oct4 fluorescence expression (IF)” value [1] does the source give for “GKCSTRGRKCMRRKK (Functional Peptide P2) [peptide P1 with the fifth cysteine of C terminal substituted with methionine]” here?
**A.** Its value is “more fluorescence was expressed”.

**Q.** What about the “dedifferentiation induction, graph counting and quantifying the number of colonies” value [2] of the same sequence?
**A.** The value was “more efficiently induced dedifferentiation”.

**Q.** What about the AP-stained colonies [2] of the same sequence?
**A.** Its AP-stained colonies is “more colonies were stained”.

**Q.** What about the AP staining clarity [2] of the same sequence?
**A.** The AP staining clarity was “clearer”.

**Q.** What about the “change of mesenchymal shape of dermal fibroblasts to epithelial shape (THY1/EPCAM, FACS)” value [3] of the same sequence?
**A.** Its value is “significantly changed to an epithelial shape”.

**Q.** Which results are given for GKCSTRGRKMCRRKK [Peptide P3]?
**A.** Oct4 fluorescence expression (IF) [1]: more fluorescence was expressed; dedifferentiation induction, graph counting and quantifying the number of colonies [2]: more efficiently induced dedifferentiation; AP-stained colonies [2]: more colonies were stained; AP staining clarity [2]: clearer; change of mesenchymal shape of dermal fibroblasts to epithelial shape (THY1/EPCAM, FACS) [3]: significantly changed to an epithelial shape
